Results on 100 molecules are retold here after PubChem BioAssay AID463229 (Broad Institute, 2010).

Bounds are passed on as bounds.

The test system of the assay is INS-1E rat beta cells, no cytokines, CellTiter-Glo ATP, 48 h. The experiment in a line: ATP level change in INS-1E without cytokines, dose response, counter-screen for beta-cell apoptosis protection project, INS-1E rat cells, ATP luminescence, cherry pick (AID 463229).
For the molecule `CC(C)n1cnc2c(NCc3ccccc3)cc(N[C@H](C)CO)cc21`, the AC50 was 13.7 µM.
As to `CCOc1cc(/C=N/Nc2cc(C)nc(-n3nc(C)cc3C)n2)ccc1O`, the AC50 was 5.78 µM.
With `O=C(CCC(=O)Nc1ccc(Cl)cc1Cl)N/N=C/c1ccc([N+](=O)[O-])o1` the figure was 13.8 µM; with `CCN1/C(=C/C=C/c2sc3ccccc3[n+]2CC)Sc2ccccc21`, below 0.195 µM; with `COc1cccc(C(=O)Oc2c(Br)cc(Br)cc2/C=N/NC(=O)c2cc(C)[nH]n2)c1`, 7.17 µM.
On to `COC(=O)C[C@]1(C(=O)OC)CN(C#N)N(c2ccc(Cl)cc2)C12c1ccccc1-c1ccccc12`, for which the AC50 was 4.13 µM.
Regarding `CC(=O)Nc1sc2c(c1-c1nc3ccccc3s1)CCN(C(C)C)C2`, the AC50 was 5.11 µM.
For the molecule `Cc1ccccc1Oc1cc(-n2ncc(Cl)c(Cl)c2=O)ncn1`, the AC50 is 3.98 µM.
`COc1ccc(-c2cn(-c3ccc(Cl)cc3)c3[n+]2CCCCC3)cc1`: the AC50 was 2 µM.
With `CCCCn1c(=N)n(CC(=O)c2ccc(Br)s2)c2ccccc21` the figure was 13.1 µM.
With `c1cnc(N2CCN(Cc3c[nH]c4ccccc34)CC2)nc1` the figure was 4.83 µM; with `O=C(NNc1ccnc2cc(Cl)ccc12)C1CCCCC1`, 2.53 µM; with `COc1cc(/C=C(/C(=O)c2cccs2)c2nc3ccccc3[nH]2)ccc1O`, 12.9 µM.
For `Cc1ccc(N=Nc2ccc(O)c3ncccc23)cc1` the value was 6.58 µM; for `Cc1ccc(Nc2c(-c3ccccn3)nc3cccc(C)n23)cc1`, 6.47 µM; for `COc1ccc(-c2sc3ccccc3c2-c2ccc(OCCN(C)C)cc2)cc1`, 7.12 µM.
Consider `CC(=O)/C=C/n1c(=S)oc2ccccc21`, for which the AC50 is 8.87 µM.
For `O=C1C(=O)c2c(C(=O)c3ccccc3)coc2-c2ccccc21`, the AC50 is 7.21 µM.
For `CCOC(=O)c1ccc(NC(=O)Cn2cnc3cc(C)c(C)cc32)cc1` the value was 5.23 µM; for `COc1ccc(O)c(/C=N/NC(=O)c2cccc(N3CCCC3=O)c2)c1`, 14.8 µM; for `Cc1ccc(-c2nc(C(Cl)Cl)c3ccccc3n2)cc1`, 3.51 µM.
Take `C=C(C(=O)c1ccccc1)C(C)C(=C)C(=O)c1ccccc1`: the AC50 was 7.84 µM.
For `O=C(Nc1cc(Sc2ccccn2)cc([N+](=O)[O-])c1)c1ccc(Cl)cc1`, the AC50 is 8.9 µM.
In the case of `O=C(Nc1nc(-c2ccccn2)cs1)c1cccc(-n2cnnn2)c1`, the AC50 was 7.05 µM.
For `CCOC(=O)c1ccc(NC(=O)NCc2cccnc2)cc1`, the AC50 is 2.01 µM.
Take `CN(c1ccccc1)c1ccc(/C=C/[N+](=O)[O-])cc1`: the AC50 was 8.01 µM.
Consider `Oc1c(C(Nc2ccccn2)c2ccccn2)ccc2cccnc12` (stereo not given), for which the AC50 was 6.16 µM.
For `CCN(CC)Cc1c(O)ccc2c1O/C(=C\C=C\c1ccccc1)C2=O`, the AC50 is 14.4 µM.
`O=C(N/N=C\c1cc(Br)ccc1O)c1ccc(S(=O)(=O)N2CCCCC2)cc1`: the AC50 was 3.54 µM.
As for `CCn1c(SCC(=O)Nc2cc(C)on2)nc2sc3c(c2c1=O)CCCC3`, the AC50 was 16.7 µM.
With `CCN(Cc1ccccc1)C(c1ccc(C(F)(F)F)cc1)c1nnnn1C(C)(C)C` (stereo not given) the figure was 4.83 µM.
As to `CC(=O)N(C)C1=C(N2CCOCC2)C(=O)c2ccccc2C1=O`, the AC50 was 7.91 µM.
`Cc1nc(N/N=C/c2ccccn2)sc1C`: the AC50 is 9.42 µM.
As to `Cc1ccc2cc(C3C(C#N)=C(N)Oc4c3ccc3cccnc43)c(=O)[nH]c2c1` (stereo not given), the AC50 is 5.81 µM.
For `CCN1c2ccccc2N(C)C1(C)c1ccccc1` (stereo not given), the AC50 is 4.56 µM.
Regarding `Cn1nnnc1N=N/C(=N/Nc1ccccc1)c1ccccc1`, the AC50 is 4.36 µM.
Take `COc1ccc(NS(=O)(=O)c2ccc(N3CCCCC3)c(N)c2)cc1`: the AC50 is 4.75 µM.
As for `CCOc1cc(C)c(S(=O)(=O)Nc2ccc3cn[nH]c3c2)cc1C`, the AC50 was 9.86 µM.
Regarding `CCCOc1ccc(CSc2nc3ccccc3[nH]2)cc1`, the AC50 is 5.41 µM.
With `C=CCSc1nc2ccccc2n1C(=O)/C=C/c1ccc(OC)c(OC)c1`, the AC50 is 11 µM.
`CC1(C)C(C=C(Cl)Cl)C1C(=O)Nc1ccc([N+](=O)[O-])cc1` (stereo not given): the AC50 is 7.7 µM.
Regarding `O=C(N/N=C/c1cnc(N2CCCCC2)s1)c1ccc(C(F)(F)F)cc1`, the AC50 is 6.66 µM.
Regarding `CN1/C(=C\C(=O)COC(=O)c2ccc(O)c(O)c2)C(C)(C)c2ccccc21`, the AC50 is 10.1 µM.
As to `CCN(CC)c1ccc(/C=N/NC(=O)c2ccc3nc[nH]c3c2)c(O)c1`, the AC50 was 2.7 µM.
For the molecule `Cc1ccc(S(=O)(=O)N2CCN(c3ncnc4ccccc34)CC2)cc1`, the AC50 is 6.28 µM.
On to `O=C(Oc1c(Cl)cc(Cl)c2cccnc12)c1cccs1`, for which the AC50 is 15 µM.
With `CN1/C(=C\C(=O)CN2C(=O)NC3(CCCCCC3)C2=O)C(C)(C)c2ccccc21` the figure was 7.99 µM; with `COc1ccc(C2c3ccc4ccccc4c3Oc3ncn(CCCN(C)C)c(=N)c32)cc1` (stereo not given), 8.02 µM.
With `CC(CNC(=O)c1ccc(OC2CCN(Cc3ccccn3)CC2)cc1)Oc1cccnc1` (stereo not given), the AC50 was 7.36 µM.
Consider `CC(C)Nc1ccc(Nc2ccccc2)cc1`, for which the AC50 was 7.5 µM.
Take `Cc1cccc(CNc2ncnc3ccc(-c4ccc5c(c4)OCCO5)cc23)c1`: the AC50 is 7.27 µM.
Take `CN(c1ccccc1)S(=O)(=O)c1ccc(NC(=O)c2nc(S(C)(=O)=O)ncc2Cl)cc1`: the AC50 was 7.32 µM.
For `COC(=O)c1cc(O)cc(OC)c1Oc1cc(C)cc(O)c1C(=O)O`, the AC50 was 5.37 µM.
In the case of `O=C(CSc1nnc(Cn2nnc3ccccc32)o1)N(Cc1ccc(F)cc1)c1ccccc1`, the half-maximal activity concentration (AC50) is 7.94 µM.
In the case of `N#Cc1c(Cl)nsc1NC(=O)c1ccccc1`, the AC50 was 8.12 µM.
As for `Cc1cc(C)c2nc(NNC(=O)c3ccc(S(=O)(=O)N4CCCC(C)C4)cc3)sc2c1` (stereo not given), the AC50 was 4.52 µM.
With `Cc1cc(C(C)(C)CC(C)(C)C)ccc1OCCOCC[N+](C)(C)Cc1ccccc1` the figure was 4.07 µM; with `COc1cc(CSc2nnnn2-c2ccc(C)cc2)cc(OC)c1OC`, 4.46 µM; with `CC(C)OCCCNc1ncnc2c1[nH]c1ccccc12`, 4.34 µM.
Take `CCCCCn1c(=O)c(C(=O)Nc2ncccc2C)c(O)c2ccccc21`: the AC50 is 6.75 µM.
Regarding `O=C(CC(O)(C(F)(F)F)C(F)(F)F)Nc1ccc(Cl)c(Cl)c1`, the AC50 is 2.73 µM.
Regarding `Cc1cc(C(=O)NC2CCCc3c2cnn3-c2ccc(C)c(C)c2)n(C)n1` (stereo not given), the AC50 was 0.378 µM.
Take `CCCCCCCCCCOC(=O)Cn1c(COc2cccc(OC)c2)[n+](C)c2ccccc21`: the AC50 was 3.47 µM.
With `CCSc1ccc(NC(=O)c2cccnc2)cc1`, the AC50 was 11.1 µM.
With `Cc1ccc(O)c(N=Nc2nccs2)c1` the figure was 7.04 µM.
Take `CN(C)S(=O)(=O)c1cccc(N=C2NN=C(c3ccccc3)CS2)c1`: the AC50 is 4.4 µM.
With `COc1ccccc1OCCCCOc1ccccc1C(C)=O` the figure was 23 µM; with `COc1ccc(C(=O)N/N=C/c2sc3ccccc3c2O)cc1`, 7.83 µM; with `Fc1ccc2nc(Nc3nc4c(F)cc(F)cc4s3)sc2c1`, 7.69 µM.
Regarding `O=C(NCc1cccnc1)Nc1ccc([N+](=O)[O-])cc1`, the AC50 is 11.8 µM.
Take `Cc1cccc(Cn2nnc3c2C(=O)c2ccccc2C3=O)c1`: the AC50 was 10.5 µM.
As for `O=C1N/C(=N/N=C/c2ccccc2O)SC1Cc1ccc(F)cc1` (stereo not given), the AC50 was 14.6 µM.
With `Nc1nonc1-n1nnc(C(=O)N/N=C/c2cc(Br)ccc2O)c1CNc1ccccc1`, the AC50 is 8.29 µM.
With `COc1ccc(C2=Nn3c([n+](C)c4ccccc43)SC2)cc1` the figure was 1.54 µM; with `CCCCSc1ccc(NC(=O)c2cccnc2)cc1`, 14.7 µM; with `O=C(NC(NC(=S)Nc1ccccc1)C(Cl)(Cl)Cl)c1cccc(Cl)c1` (stereo not given), 13.9 µM.
With `CSc1nc(-c2ccccc2)nc(C(Cl)Cl)n1` the figure was 3.88 µM.
`COc1cccc(-c2nc(-c3ccc(NC(=O)c4cccnc4)cc3)no2)c1`: the AC50 was 2.14 µM.
As for `COc1ccc(OC)c(NC(=O)c2nc(S(=O)(=O)Cc3ccccc3)ncc2Cl)c1`, the AC50 was 7.87 µM.
In the case of `Cc1ccc(Cl)cc1N1CCN(C(=O)CSc2nnc3n2C(C)(C)Cc2ccccc2-3)CC1`, the AC50 is 7.07 µM.
`O=C(NC(=S)NNC(=O)c1cnccn1)c1ccc(F)cc1`: the AC50 was 3.48 µM.
With `CC1=C(C#N)C(C(F)(F)F)(C(F)(F)F)N=C(c2ccco2)N1` the figure was 12.8 µM; with `Cc1cc2nc(-c3ccc[nH]c3=O)[nH]c2cc1C`, 2.42 µM.
For the molecule `COc1ccc(NCc2nnc(SCC(=O)Nc3nc(-c4ccccc4)cs3)n2-c2ccccc2)cc1`, the AC50 is 7 µM.
With `CC(C)(C)n1nnnc1C(c1ccc(F)cc1)N(Cc1ccc(F)cc1)Cc1ccco1` (stereo not given) the figure was 9.25 µM; with `Oc1ccc(CCNc2ncnc3ccc(Cl)cc23)cc1`, 5.59 µM; with `COc1ccc(/C=N/NC(=O)c2nc(-c3ccccc3)n(-c3ccccc3)n2)c(O)c1`, 4.37 µM.
As to `CCOC(=O)N1CCN(Cc2cc(Cl)c3cccnc3c2O)CC1`, the AC50 was 13.2 µM.
`Cc1ccc(NC2=C/C(=N/S(=O)(=O)c3cccs3)c3ccccc3C2=O)cc1`: the AC50 is 2.37 µM.
Turning to `Cn1nc(C(C)(C)C)cc1C(=O)NCc1cc(F)cc2c1OCOC2`, the AC50 is 5.86 µM.
`CCn1c(=NC(=O)c2ccc(S(=O)(=O)N3CCOCC3)cc2)sc2cccc(OC)c21`: the AC50 was 8.4 µM.
With `CCN(CC)CCCNC1=C(Cl)C(=O)c2ccccc2C1=O`, the AC50 is 13.1 µM.
For `CCN(CC)CCNc1ncnc2c1sc1nc(N3CCOCC3)c3c(c12)CC(C)(C)SC3`, the AC50 is 14.2 µM.
For `COc1cccc(/C=N/NC(=O)c2cc3c(OC)ccc(OC)c3[nH]2)c1O`, the AC50 was 10.7 µM.
For the molecule `Cc1ccc(NC(=O)c2cc(S(=O)(=O)NCCC3=CCCCC3)ccc2F)cc1F`, the AC50 is 6.58 µM.
As for `CN(C)S(=O)(=O)c1ccc(Oc2ccc(S(=O)(=O)N(C)C)cc2)cc1`, the half-maximal activity concentration (AC50) is 9.29 µM.
As for `Cc1cc(C)n(CCC(=O)N/N=C/c2c(O)ccc3ccccc23)n1`, the AC50 is 9.78 µM.
As to `CC(C)(C)c1ccc(NNC(=O)C2CCC2)cc1`, the half-maximal activity concentration (AC50) was 9.64 µM.
For `O=C(Nc1ccc(-c2nc3ccccc3o2)cc1)c1ccc(N2CCOCC2)c([N+](=O)[O-])c1` the value was 5.65 µM; for `Cc1ccc(O)c(NC(=S)NC(=O)c2ccc(-c3ccc(Cl)cc3)o2)c1`, 23.9 µM.
